Source: paper PMC12389136, “Insights into the Structural Patterns in Human Glioblastoma Cell Line SF268 Activity and ADMET Prediction of Curcumin Derivatives” (Pharmaceutics, 2025)

Tested on: ROS production in SF268 cells
Assay: Intracellular reactive oxygen species production (DCFDA)
Type: cell-based, Human
Details: derivatives 10 µg/mL for 3 h, H2O2 100 µM positive control
Experimental: Intracellular ROS formation was measured by fluorometry with the reactive dye chloromethyl dichlorodihydrofluorescein diacetate (DCFDA; Molecular Probes). […] Cultures were incubated with curcumin derivatives at 10 μg/mL for 3 h, after which the ROS-specific fluorescent dye DCFDA solution was added to the cells. After 30 min, fluorescence was measured at a wavelength of 485 nm (excitation)/535 nm (emission) using a microplate reader (Molecular Devices, San Jose, CA, USA).
Intracellular ROS production was tested following the treatment of SF268 cells with the curcumin derivatives at 10 μg/mL by fluorometry after staining with DCFDA.
Figure 7 Effects of curcumin derivatives on ROS generation. Cells were treated with curcumin derivatives at 10 μg/mL for 3 h. ROS production was determined using the DCFH-DA assay.

Compound | ROS production
OO [Compound H2O2, Hydrogen peroxide] | distinct ROS production
O=C1O[C@H]([C@@H](O)CO)C(O)=C1O [ascorbic acid] | expected decrease
